Measurements: patent US11607404B2, “Combinations of RAD51 and PARP inhibitors” (Cyteir Therapeutics, Inc., priority 2019, dated 2023)
pEC50: −log10 of the molar value. Where two headings read alike, the source gives them in different places.

Experiments:
[1] = system: Daudi cell line (AID positive); assay: Primary screening cell killing assay (Cell-Titer Glo, Day 7); format: cell-based; conditions: Homo sapiens
Procedure: (§1) Primary screening was a phenotypic screen that utilized the synthetic lethal interaction between AID and RAD51 to identify compounds that were both potent and on target. AID expressing cells are dependent upon RAD51 for survival; inhibiting RAD51 in AID positive cells results in a cytotoxic effect.
(§2) The first step was to set up a cell killing assay in the Daudi cell line (AID positive). A 96 well u-bottom plate was prepared by writing the experiment number, plate number, date and initials in the top right corner of the plate lid. With a sterile 300 ml reservoir, and 25 ml serological pipette, evaporation buffer media was pipetted into reservoir in 25 ml increments. Using the liquid handler, 150 ul of evaporation buffer media was pipetted from reservoir into rows A and H, and Columns 1 and 12 of the 96 well u-bottom plate. Cell cultures were counted to obtain the density of cells per ml, and the culture viability. The cell density information was used to obtain 1,000,000 cells from culture using a 5 mL serological pipette into an epi tube. The cell density information from the culture was used to calculate the number of cells and volume of media needed for the assay to seed 1250 cells in 130 ul of media per available culture well in the 96 well u-bottom plate. Rows B through F were used for cells (50 wells in total), with row G left for an empty media control. The calculation was overestimated by 10 mL to account for the dead volume in the 300 ml reservoir. Once the media volume was calculated, the appropriate volume of media was pipetted in 25 mL increments into the 250 mL bottle using a 25 mL serological pipette. The 250 ml bottle was capped tightly, and placed into a 37° C. water bath for 2 minutes. While the culture media was warming, 10 mL of fresh media was pipetted from the 500 mL culture media bottle into a sterile 25 mL reservoir. Using the Eppendorf multichannel pipette, 130 ul of media was piptted from the 25 mL reservoir into row G of the 96 well u-bottom plate. Once the 250 mL bottle of media was warmed, the volume of culture needed was pipetted into the bottle, and mixed gently with a 25 mL serological pipette as to not create bubbles, and then the contents of the bottle were pipetted into a new 300 mL reservoir. Using the liquid handler, 130 ul of culture was pipetted from the 300 mL reservoir into rows B through F of the 96 well u-bottom plate. Once the culture was added, the plate was placed into a 37° C. incubator until the compound master plate was prepared for use.
(§3) Two 96 well u-bottom plates were prepared by writing the master plate name in the upper right corner of the plate lid. Labeling one DMSO master and the other Media Master. The compounds of interest were obtained from the laboratory freezer, and placed into a 25 well storage box with a lid, and set the box aside. The compounds were vortexed after thawing but before use. Using an automatic multichannel pipette, 20 ul of 100% DMSO was pipetted into wells B3-B11 through G3-G11 of the DMSO master plate. For each compound on the master plate, 50 ul of the compound were pipetted in the appropriate well of row 2 (reference plate map to determine appropriate well). A serial dilution was prepared beginning by aspirating 20 ul from row 2 and mixing with row 3, repeating until row 11 was reached. Using the liquid handler, 194 ul of Daudi media was dispensed into wells B2-B11 through G2-G11 of the Media master plate. Using the liquid handler, 6 ul from the DMSO master plate was aspirated and dispensed into the media master plate, mixing 100 ul twice.
Compounds from master plate were then added to the culture plate. The culture plates were removed from the incubator, and set inside the biosafety cabinet. Using a liquid handler, 20 ul from wells B2 to B11 through G2 to G11 of master plate were aspirated, and dispensed into wells B2 to B11 through G2 to G11 of culture plate. This set was continued with each culture plate. […]

[2] = system: WI-38 cells (AID negative); assay: Primary screening cell killing assay repeated in AID negative cells; format: cell-based, Human
Procedure: as §1
Percent cell death and EC50 values were calculated by comparing the cell viability of the compound treated wells to the non-treated wells. Normalized RLU values were obtained by subtracting the media well values from each of the wells in the same column, and then dividing that value by the DMSO treated cells values. The percent kill was then calculated by subtracting the normalized RLU value from 1 and multiplying by 100. The average normalized percent kill value and standard error of the mean was then calculated. The kill values were then inputted into Prism with the corresponding standard errors. In Prism a non-linear regression line was plotted with the data points using a semi-log scale, and the EC50 value was calculated.
The activity of the claimed compounds was measured in a variety of cell lines with different expression levels of activation induced cytidine deaminase (AICDA). The potency assay was repeated in all of the listed cell lines and the EC50 values recorded.

[3] = system: U-698-M (Lymphoma); assay: Cell line screen (potency assay); format: cell-based; conditions: AICDA expression High
Procedure: as §2, §3
(§4) Compounds from master plate were then added to the culture plate. The culture plates were removed from the incubator, and set inside the biosafety cabinet. Using a liquid handler, 20 ul from wells B2 to B11 through G2 to G11 of master plate were aspirated, and dispensed into wells B2 to B11 through G2 to G11 of culture plate. This set was continued with each culture plate. Once the culture plates acquired their 20 ul of compound dilutions, they were placed back into the incubator, until their reads on Day 7 of experiment. Cell death was measured on Day 7 of the experiment using Cell-Titer Glo and a Promega Plate reader. […]

[4] = system: KG-1 (Leukemia); assay: Cell line screen (potency assay); format: cell-based; conditions: AICDA expression Negative
Procedure: as §2, §3, §4

[5] = system: KYSE-510 (Head and Neck); assay: Cell line screen (potency assay); format: cell-based; conditions: Homo sapiens, AICDA expression Negative
Procedure: as §2, §3, §4

[6] = system: WSU-FSCCL (Lymphoma); assay: Cell line screen (potency assay); format: cell-based; conditions: AICDA expression Negative
Procedure: as §2, §3, §4

[7] = system: ARPE19/HPV16 (HPV Immortalized RPE); assay: Cell line screen (potency assay); format: cell-based; conditions: ARPE-19, AICDA expression Negative
Procedure: as §2, §3, §4

[8] = system: TOV-1120D (Ovary); assay: Cell line screen (potency assay); format: cell-based; conditions: AICDA expression Negative
Procedure: as §2, §3, §4

[9] = system: KYSE-70 (Head and Neck); assay: Cell line screen (potency assay); format: cell-based; conditions: Homo sapiens, AICDA expression Low
Procedure: as §2, §3, §4

[10] = system: OV56 (Ovary); assay: Cell line screen (potency assay); format: cell-based; conditions: AICDA expression Low
Procedure: as §2, §3, §4

[11] = system: CCRF-SB (Leukemia); assay: Cell line screen (potency assay); format: cell-based; conditions: Homo sapiens, AICDA expression High
Procedure: as §2, §3, §4

[12] = Pharmacokinetic (PK) study; format: in vivo, Rat; conditions: po @ 80 mg/kg (30% PEG400, 10% Vitamin E TPGS in water)
Procedure: PK studies in mice were used to determine the fate of the compounds in a whole organism. Rats were treated with the compounds either orally of via IV at the indicated doses and followed for up to 24 hours. Plasma samples were taken at different time points and analyzed by LC-MS.

[13] = Bi-directional Caco-2 permeability; format: in vitro ADME; conditions: human
Procedure: Bi-directional Caco-2 permeability was assayed. Caco-2 cells were seeded onto permeable polycarbonate supports and allowed to differentiate for about 3 weeks prior to being used in the assays. The cells were then exposed to the compounds from either the apical or basolateral sides and incubated at 37 C for up to 90 minutes under light agitation. Compound transport was then measured using LC/MS/MS analysis at 30, 60, and 90 minutes.

[14] = Human liver microsome stability; format: in vitro ADME
Procedure: The stability of the claimed compounds was determined in the presences of human liver microsomes. The compounds were incubated with the microsomes at 37° C. for 45 minutes. Samples were analyzed using LC-MS/MS. Data analysis included half-life, clearance rate, and the percentage of hepatic blood flow (% QH) for each of the compounds in the different species.

[15] = 168 h, Daudi cells (AID positive), cell death on Day 7, read-out: AID+ EC50
[16] = Homo sapiens, WI-38 cells (AID negative), read-out: AID− EC50
[17] = Caco-2, apical to basolateral, read-out: AB Recovery %
[18] = Caco-2, basolateral to apical, read-out: BA Recovery %

Row | SMILES | pEC50 [1, 15] | pEC50 [2, 16] | recovery at 90 min [13, 17] | recovery at 90 min [13, 18] | other results
1 | CC(C)(C)NS(=O)(=O)c1cc(NC(=O)OC2COC2)ccc1-c1cnc(C2CCC(NC(=O)OC3COC3)CC2)s1 (stereo not drawn) [Compound 49] | ≥ 6.00 | < 6.00 | – | – | –
2 | CC(C)OC(=O)N[C@H]1CC[C@H](c2ncc(-c3ccc(NC(=O)NCc4ccccn4)cc3S(=O)(=O)NC(C)(C)C)s2)CC1 [Compound 29] | ≥ 7.00 | < 6.00 | 93.9% | 90.9% | pEC50 [3]: 6.95; pEC50 [4]: < 5.00; pEC50 [5]: < 5.00; pEC50 [6]: 7.17; pEC50 [7]: < 5.00; pEC50 [8]: 5.04; pEC50 [9]: 5.33; pEC50 [10]: 5.04; pEC50 [11]: 5.89; F (%) @ 5 mg/kg ([12]; Rat Female): 8.39%; T1/2 ([12]; Rat Female): 4.66 h; F (%) @ 5 mg/kg ([12]; Rat Male): 3.69%; T1/2 ([12]; Rat Male): 3.97 h; pEC50 ([1]; Daudi (Lymphoma), AICDA expression High, read-out: EC50): 7.37; pEC50 ([2]; WI-38 (Normal Human Lung Fibroblast), AICDA expression Negative, read-out: EC50): < 5.00; Human Liver Microsome Stability Half Life ([14]; 37° C., 45 minutes incubation): 0.342 h; Human Liver Microsome Stability % QH ([14]; percentage of hepatic blood flow): 78.8%
3 | CC(C)OC(=O)N[C@@H]1CCC(c2ncc(-c3ccc(NC(=O)NCc4ccccc4)cc3S(=O)(=O)NC(C)(C)C)s2)NC1 (stereo partly drawn) [Compound 64] | ≥ 7.00 | < 6.00 | 79.7% | 95.9% | –
4 | CC(C)OC(=O)NC1CCC(c2ncc(-c3ccc(NC(=O)N[C@@H](C)c4ccccc4)cc3S(=O)(=O)NC(C)(C)C)s2)CC1 (stereo partly drawn) [Compound 26] | ≥ 7.00 | < 6.00 | – | – | –
5 | CC(C)OC(=O)NC1CCC(c2ncc(-c3ccc(NC(=O)N[C@@H](C)c4ccccn4)cc3S(=O)(=O)NC(C)(C)C)s2)CC1 (stereo partly drawn) [Compound 32] | ≥ 7.00 | < 6.00 | – | – | –
6 | CC(C)(C)NS(=O)(=O)c1cc(NC(=O)NCc2ccccc2)ccc1-c1cnc(C2CCC(NC(=O)OC3COC3)CC2)s1 (stereo not drawn) [Compound 47] | ≥ 7.00 | < 6.00 | 65.3% | 80.7% | Papp A→B ([13]; Caco-2, apical to basolateral, 37 C, up to 90 minutes, read-out: AB Papp (cm/sec × 10^6)): 8.7 ×10⁻⁶ cm/s; Papp B→A ([13]; Caco-2, basolateral to apical, 37 C, up to 90 minutes, read-out: BA Papp (cm/sec × 10^6)): 12.4 ×10⁻⁶ cm/s; efflux ratio ([13]; Caco-2 efflux ratio, read-out: BA/AB Ratio): 1.4
7 | CC(C)OC(=O)NC1CCC(c2ncc(-c3ccc(NC(=O)N[C@H](C)c4ccccn4)cc3S(=O)(=O)NC(C)(C)C)s2)CC1 (stereo partly drawn) [Compound 30] | ≥ 7.00 | < 6.00 | 79.8% | 116% | –
